How the values were obtained:
[1] = test system: tyrosine kinase activity in cell line lysates; assay: Peptide array profiling of 9 cell line lysates in the presence of MTKI or Tarceva; assay type: biochemical; settings: 5 μM
Procedure: To test whether other EGFR inhibitors, related to MTKI, such as Tarceva (erlotinib; OSI pharmaceuticals), are also amenable to this response prediction methodology, 9 cell lines were profiled in the presence of MTKI, or Tarceva (5 μM in both cases). […] The value of the previously derived MTKI prediction peptides is illustrated in Tables 6A to C. Based on these peptides also response to Tarceva can be predicted with identical accuracy as for MTKI (and with the same false predictions, in casu H2009 and MOLT4).

[2] = test system: 27 cell lines, representing diverse cancer cell types; assay: Inhibition of proliferation of cell lines in vitro (response status); assay type: cell-based; settings: response to MTKI
Procedure: (§1) It was tested whether the Pamchip peptide arrays are a useful tool to predict the response of a cell line to the multi-targeted kinase inhibitor, MTKI. MTKI inhibits the proliferation of a range of cell lines in vitro with widely varying IC50's. The lysates prepared from these 27 cell lines, representing diverse cancer cell types, were profiled on the peptide arrays in the absence or presence of 5 μM MTKI, in 6 replicates for each condition. In this panel, 13 cell lines were defined as responder cell lines (IC50<3 μM; cell lines are ordered according to increasing IC50 in Example 1, whereas 14 cell lines are classified as ‘non-responder’ cell lines (IC50>10 μM). Intermediary cell lines and cell lines with highly variable IC50 measurements were omitted from the analysis. The experiment included the highly responsive H3255 lung cancer cell line, which overexpresses mutant EGFR L858R. This mutant variant is highly responsive to MTKI, which is an ATP-competitive compound that binds to the active conformation of EGFR (similar to erlotinib and gefitinib). Accordingly, the most profound changes induced by MTKI in lysate kinase activity can be observed for this highly responsive cell line. To identify those peptides for which the inhibition of phosphorylation by MTKI correlates well with the response status of the cell line from which the lysate was prepared, a statistical mixed-model was set up to identify those peptides that are most likely to change after MTKI treatment in responder cell lysates compared to non-responder lysates, taken into account the inter-replicate variability (see the material and methods section for a more detailed description of the statistical test). […] To illustrate that the inhibition of the phosphorylation of these peptides in a given lysate does indeed correlate with the response of the corresponding cell line to MTKI, the following cut-off was chosen to classify responders and non-responders: minimally 4 peptides out of the 16 peptide list should be inhibited with a ratio of less than 0.8 (more than 20% inhibition) to classify as a responder. Applying this rule to all 27 cell lines indicates an overall classification accuracy of 82% (with 78% sensitivity, and 86% specificity). […] Note that the use of these […] peptides as a classification tool can be optimized according to the required sensitivity and specificity.

EGFR L858R = EGFR L858R (Homo sapiens, UniProt P00533, L858R); assay: IC50 on mutant EGFR; assay type: biochemical
Sequence of EGFR L858R (P00533 25-1210 L858R): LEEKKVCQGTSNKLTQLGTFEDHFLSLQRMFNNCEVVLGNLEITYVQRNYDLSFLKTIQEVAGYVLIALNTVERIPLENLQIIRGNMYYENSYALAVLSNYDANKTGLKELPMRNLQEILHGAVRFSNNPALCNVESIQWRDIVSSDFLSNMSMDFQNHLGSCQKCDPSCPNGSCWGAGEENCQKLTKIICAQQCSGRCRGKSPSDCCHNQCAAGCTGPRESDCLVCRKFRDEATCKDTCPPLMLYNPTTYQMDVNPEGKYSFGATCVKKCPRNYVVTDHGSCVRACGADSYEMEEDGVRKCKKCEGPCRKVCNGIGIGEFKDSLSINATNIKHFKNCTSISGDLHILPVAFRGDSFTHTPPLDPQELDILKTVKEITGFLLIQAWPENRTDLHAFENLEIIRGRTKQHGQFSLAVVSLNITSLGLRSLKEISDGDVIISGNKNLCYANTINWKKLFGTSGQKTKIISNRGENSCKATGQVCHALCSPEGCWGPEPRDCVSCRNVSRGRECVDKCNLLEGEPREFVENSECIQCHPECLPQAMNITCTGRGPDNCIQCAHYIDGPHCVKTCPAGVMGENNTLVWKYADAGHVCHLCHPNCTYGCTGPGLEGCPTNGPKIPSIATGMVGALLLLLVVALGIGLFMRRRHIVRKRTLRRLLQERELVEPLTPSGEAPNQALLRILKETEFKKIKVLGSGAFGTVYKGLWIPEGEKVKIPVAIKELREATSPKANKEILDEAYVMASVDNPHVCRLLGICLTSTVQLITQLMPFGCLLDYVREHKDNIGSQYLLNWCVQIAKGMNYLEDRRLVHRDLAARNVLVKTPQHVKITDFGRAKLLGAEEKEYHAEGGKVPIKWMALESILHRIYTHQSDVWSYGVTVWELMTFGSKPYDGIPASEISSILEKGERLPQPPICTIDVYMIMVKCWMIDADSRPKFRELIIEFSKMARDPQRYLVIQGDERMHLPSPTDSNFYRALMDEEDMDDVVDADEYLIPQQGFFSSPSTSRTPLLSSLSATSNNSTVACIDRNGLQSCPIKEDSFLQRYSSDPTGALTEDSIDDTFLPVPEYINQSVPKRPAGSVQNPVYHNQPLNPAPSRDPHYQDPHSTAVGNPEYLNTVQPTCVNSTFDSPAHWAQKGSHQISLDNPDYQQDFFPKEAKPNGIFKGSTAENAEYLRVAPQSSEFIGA

Her2 = Her2 (Homo sapiens, UniProt P04626); assay: Her2 inhibition; assay type: biochemical
Sequence of Her2 (P04626 23-1255): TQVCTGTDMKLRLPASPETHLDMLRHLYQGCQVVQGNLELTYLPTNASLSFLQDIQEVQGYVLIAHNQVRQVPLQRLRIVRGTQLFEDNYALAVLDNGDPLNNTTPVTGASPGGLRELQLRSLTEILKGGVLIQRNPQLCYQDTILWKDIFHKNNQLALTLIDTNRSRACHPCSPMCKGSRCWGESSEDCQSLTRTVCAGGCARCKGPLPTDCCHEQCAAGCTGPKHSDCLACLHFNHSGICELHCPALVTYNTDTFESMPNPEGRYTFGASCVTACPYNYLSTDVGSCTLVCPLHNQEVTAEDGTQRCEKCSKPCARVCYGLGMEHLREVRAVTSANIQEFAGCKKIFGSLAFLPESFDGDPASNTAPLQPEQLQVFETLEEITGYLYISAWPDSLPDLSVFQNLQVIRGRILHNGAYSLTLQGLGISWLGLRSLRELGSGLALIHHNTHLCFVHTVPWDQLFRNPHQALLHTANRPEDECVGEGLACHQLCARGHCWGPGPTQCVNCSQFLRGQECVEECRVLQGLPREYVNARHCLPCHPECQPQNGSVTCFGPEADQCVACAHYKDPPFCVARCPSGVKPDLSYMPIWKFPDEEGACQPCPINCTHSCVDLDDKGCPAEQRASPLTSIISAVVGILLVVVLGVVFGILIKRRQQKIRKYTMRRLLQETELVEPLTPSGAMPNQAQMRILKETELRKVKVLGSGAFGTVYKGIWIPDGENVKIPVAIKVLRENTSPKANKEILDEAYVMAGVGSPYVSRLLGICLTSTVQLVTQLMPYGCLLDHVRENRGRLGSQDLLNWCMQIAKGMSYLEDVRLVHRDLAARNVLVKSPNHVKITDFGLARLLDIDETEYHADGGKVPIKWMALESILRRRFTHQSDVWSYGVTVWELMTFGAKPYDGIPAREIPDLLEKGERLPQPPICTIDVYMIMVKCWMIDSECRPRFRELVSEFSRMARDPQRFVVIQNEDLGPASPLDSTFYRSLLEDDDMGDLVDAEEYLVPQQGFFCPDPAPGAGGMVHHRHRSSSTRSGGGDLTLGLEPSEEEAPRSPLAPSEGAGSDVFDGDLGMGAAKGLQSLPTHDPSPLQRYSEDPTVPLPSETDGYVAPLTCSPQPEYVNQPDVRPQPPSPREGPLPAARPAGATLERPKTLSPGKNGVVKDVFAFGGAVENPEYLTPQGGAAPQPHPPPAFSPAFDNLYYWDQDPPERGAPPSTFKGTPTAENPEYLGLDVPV

[3] = test system: 27 cell lines, representing diverse cancer cell types; assay: Inhibition of proliferation of cell lines in vitro (response status); assay type: cell-based; parameters: key: R = Responder to MTKI; NR = Non-Responder to MTKI; settings: MTKI
Procedure: as §1

Compound: COc1cc2ncnc3c2cc1OCCCCCN(C)Cc1ccc(Br)cc1N3 [MTKI, 4,6-ethanediylidenepyrimido[4,5-b][6,1,12]benzoxadiazacyclopentadecine, 17-bromo-8,9,10,11,12,13,14,19-octahydro-20-methoxy-13-methyl-]
- potency in lysate inhibition profile compared to Tarceva ([1]; H3255 lysate): slightly more potent
- potency in lysate inhibition profile compared to Tarceva ([1]; N87 lysate): more potent
- IC50 ([2]; BT474OD cell line): < 3 µM
- IC50 ([2]; COLO 699, Colo699 cell line): < 3 µM
- IC50 ([2]; HEK239, HEK239 cell line): > 10 µM
- IC50 ([2]; HT1373 cell line): > 10 µM
- IC50 ([2]; Homo sapiens, A-431, A431 cell line): < 3 µM
- IC50 ([2]; Homo sapiens, DU-145, DU145 cell line): < 3 µM
- IC50 ([2]; Homo sapiens, GTL 16, GTL16 cell line): > 10 µM
- IC50 ([2]; Homo sapiens, MCF7, MCF7 cell line): > 10 µM
- IC50 ([2]; Homo sapiens, MDA-MB-435S, MDAMB435s cell line): > 10 µM
- IC50 ([2]; Homo sapiens, MKN-45, MKN45 cell line): > 10 µM
- IC50 ([2]; Homo sapiens, MOLT-4, MOLT4 cell line): > 10 µM
- IC50 ([2]; Homo sapiens, NCI-H23, H23 cell line): > 10 µM
- IC50 ([2]; Homo sapiens, NCI-H1650, H1650 cell line): > 10 µM
- IC50 ([2]; Homo sapiens, NCI-H2009, H2009 cell line): < 3 µM
- IC50 ([2]; Homo sapiens, NCI-H2122, H2122 cell line): < 3 µM
- IC50 ([2]; Homo sapiens, NCI-H3255, H3255 cell line): < 3 µM
- IC50 ([2]; Homo sapiens, NCI-N87, NCI-N87 cell line): < 3 µM
- IC50 ([2]; Homo sapiens, SH-SY5Y, SHSY5Y cell line): > 10 µM
- IC50 ([2]; Homo sapiens, SK-BR-3, SKBR3 cell line): < 3 µM
- IC50 ([2]; Homo sapiens, SNU-5, SNU5 cell line): > 10 µM
- IC50 ([2]; Homo sapiens, U-118-MG, U118MG cell line): > 10 µM
- IC50 ([2]; MDA231PAR cell line): > 10 µM
- IC50 ([2]; NCI-H322, H322 cell line): < 3 µM
- IC50 ([2]; RSJSA1 cell line): > 10 µM
- IC50 ([2]; SNU-484, SNU484 cell line): < 3 µM
- IC50 ([2]; SUM149, SUM149 cell line): < 3 µM
- IC50 ([2]; SUM159, SUM159 cell line): < 3 µM
- IC50 on EGFR 1858R compared to Tarceva (EGFR L858R): lower IC50
- inhibition of Her2 compared to Tarceva (Her2): better inhibitor than Tarceva
- response status ([3]; A431 cell line): R
- response status ([3]; DU145 cell line): R
- response status ([3]; H2009 cell line): R
- response status ([3]; H3255 cell line): R
- response status ([3]; N87 cell line): R
- response status ([3]; SKBR3 cell line): R
- response status ([3]; SUM149 cell line): R

From patent publication US20100234238A1, “METHOD FOR PROFILING KINASE INHIBITORS” (Janssen Pharmaceutica N V, priority 2006, published 2010)
